Measurements reported in patent US20130245006A1, “NOVEL INDOLIZINE DERIVATIVES, AND PREPARATION AND THERAPEUTIC USE THEREOF” (SANOFI, priority 2010, published 2013).
≈ marks a conversion by molar mass, not a printed value. Counter-ions that a name gives are not always drawn.

Assay: Solubility by HPLC relative to a reference sample
Assay type: physicochemical
Settings: aqueous buffer, phosphate buffer, at the pH given
Method: The evaluation of the solubility of the compounds of the invention is carried out at pH 4 (using a phosphate buffer, […]) by HPLC using an H2O/CH3CN/CH3SO3H gradient, relative to a reference sample (a dilute solution of the product to be evaluated which serves as an internal control). The solubility S results are expressed in mg/ml. Generally, the compounds of the present invention have a solubility S≧4 mg/ml at pH≧4. Among them, mention may be made of the solubilities of the following compounds in the table below: […]

Point of comparison: `CCc1cc2cc(C(=O)N(CC)Cc3cc(C)on3)ccn2c1C(=O)c1ccc(CCCNC(C)(C)C)cc1` [compound 46, 3-[4-(3-tert-Butylaminopropyl)benzoyl]-2-ethylindolizine-7-carboxylic acid ethyl(5-methylisoxazol-3-ylmethyl)amide], solubility 1730 µg/mL (≈ 3.27 mM). Against it:
- CCc1cc2cc(C(=O)N3CCNC(=O)CC3)ccn2c1C(=O)c1ccc(CCCNC2CCCC2)cc1 [compound 53, 1-{3-[4-(3-Cyclopentylaminopropyl)benzoyl]-2-ethylindolizine-7-carbonyl}[1,4]diazepam-5-one] — 4-fold higher, 6930 µg/mL (≈ 13.5 mM)

Assay: not given
Settings: not given

Point of comparison: `CCN[C@@H](CCc1ccc(C(=O)c2c(CC)cc3cc(C(=O)N(CC)Cc4nnn(C)n4)ccn23)cc1)C(C)C` (as salt: hydrochloride) [Compound No. 20, 2-Ethyl-3-[4-((S)-3-ethylamino-4-methylpentyl)benzoyl]indolizine-7-carboxylic acid ethyl(2-methyl-2H-tetrazol-5-ylmethyl)amide], melting point 100 °C. Against it:
- CCc1cc2cc(C(=O)N3CCNC(=O)CC3)ccn2c1C(=O)c1ccc(CCCNC2CCCC2)cc1 [compound 53, 1-{3-[4-(3-Cyclopentylaminopropyl)benzoyl]-2-ethylindolizine-7-carbonyl}[1,4]diazepam-5-one] — higher, 176 °C
- CCc1cc2cc(C(=O)N(CC)Cc3cnn(C)c3)ccn2c1C(=O)c1ccc(CCCNC(C)(C)C)cc1 [compound 45, 3-[4-(3-tert-Butylaminopropyl)benzoyl]-2-ethylindolizine-7-carboxylic acid ethyl(1-methyl-1H-pyrazol-4-ylmethyl)amide] — higher, 173 °C
- CCN(Cc1nnn(C)n1)C(=O)c1ccn2c(C(=O)c3ccc(CCCNC(C)(C)C)cc3)c(C3CCC3)cc2c1 [compound 42, 3-[4-(3-tert-Butylaminopropyl)benzoyl]-2-cyclobutylindolizine-7-carboxylic acid ethyl(2-methyl-2H-tetrazol-5-ylmethyl)amide] — higher, 195 °C
- CCc1cc2cc(C(=O)OCc3nnn(C)n3)ccn2c1C(=O)c1ccc(CCCNC(C)(C)C)cc1 [compound 49, 3-[4-(3-tert-Butylaminopropyl)benzoyl]-2-ethylindolizine-7-carboxylic acid 2-methyl-2H-tetrazol-5-ylmethyl ester] — higher, 203 °C
- CCCCc1cc2cc(C(=O)N(CC)CC)ccn2c1C(=O)c1ccc(C2CCNCC2)cc1 [compound 66, 2-Butyl-3-(4-piperidin-4-yl-benzoyl) indolizine-7-carboxylic acid diethylamide] — higher, 149.6 °C
- CCc1cc2cc(C(=O)N(CC)Cc3cc(C)on3)ccn2c1C(=O)c1ccc(CCCNC(C)(C)C)cc1 [compound 46, 3-[4-(3-tert-Butylaminopropyl)benzoyl]-2-ethylindolizine-7-carboxylic acid ethyl(5-methylisoxazol-3-ylmethyl)amide] — higher, 175 °C
- CCc1cc2cc(C(=O)N(CC)Cc3nnn(C)n3)ccn2c1C(=O)c1ccc(CCC(C)(C)NC(C)(C)C)cc1 (as salt: hydrochloride) [Compound No. 18, 3-[4-(3-tert-Butylamino-3-methylbutyl)benzoyl]-2-ethylindolizine-7-carboxylic acid ethyl(2-methyl-2H-tetrazol-5-ylmethyl)amide] — higher, 122 °C
- CCc1cc2cc(C(=O)O[C@H]3CNC(=O)C3)ccn2c1C(=O)c1ccc(CCCNC(C)(C)C)cc1 [compound 52, 3-[4-(3-tert-Butylaminopropyl)benzoyl]-2-ethylindolizine-7-carboxylic acid (R)-5-oxopyrrolidin-3-yl ester] — higher, 162 °C
- CCc1cc2cc(C(=O)N(CC)Cc3ccn(C)n3)ccn2c1C(=O)c1ccc(CCCNC(C)(C)C)cc1 [compound 44, 3-[4-(3-tert-Butylaminopropyl)benzoyl]-2-ethylindolizine-7-carboxylic acid ethyl(1-methyl-1H-pyrazol-3-ylmethyl)amide] — higher, 149 °C
- CCc1cc2cc(C(=O)N(CC(=O)OC)C(C)C)ccn2c1C(=O)c1ccc(CCC(C)(C)NC2CCCC2)cc1 (as salt: hydrochloride) [Compound No. 19, ({3-[4-(3-Cyclopentylamino-3-methylbutyl)benzoyl]-2-ethylindolizine-7-carbonyl}isopropylamino)acetic acid methyl ester] — higher, 245 °C
- CCOCCN(CC)C(=O)c1ccn2c(C(=O)c3ccc(CCCNC4CCCC4)cc3)c(CC)cc2c1 [compound 37, 3-[4-(3-Cyclopentylaminopropyl)benzoyl]-2-ethylindolizine-7-carboxylic acid (2-ethoxyethyl)ethylamide] — higher, 146.4 °C
- CCc1cc2cc(C(=O)N3CCNC(=O)C3)ccn2c1C(=O)c1ccc(CCCNC(C)(C)C)cc1 [compound 38, 4-{3-[4-(3-tert-Butylaminopropyl)benzoyl]-2-ethylindolizine-7-carbonyl}piperazin-2-one] — higher, 122 °C
- CCN(Cc1nnn(C)n1)C(=O)c1ccn2c(C(=O)c3ccc(CCCNC(C)(C)C)cc3)c(C)cc2c1 [compound 78, 3-[4-(3-tert-Butylaminopropyl)benzoyl]-2-methylindolizine-7-carboxylic acid ethyl(2-methyl-2H-tetrazol-5-ylmethyl)amide] — higher, 153 °C
